Counter-ions that a name gives are not always drawn.
Tests used:
E. coli = assay: Resistance of E. coli mutants selected against the compound (MIC); format: cell-based; details: E. coli mutants showing resistance to compound vs wildtype
Description: In an exemplary assay, activity of a representative compound against the editing domain was confirmed. To identify the target of the novel boron-containing antibacterial compound (A1), mutants in E. coli showing resistance to compound (A1) were isolated. […] The leuS gene from the mutants was cloned onto a plasmid and their resistance was confirmed by MIC. The editing domain from these mutants were sequenced and the mutations were all located in the editing domain of this enzyme.
All MIC testing of bacteria followed the Clinical and Laboratory Standards Institute (CLSI) guidelines for antimicrobial testing of aerobic bacteria (Methods for Dilution Antimicrobial Susceptibility Tests for Bacteria That Grow Aerobically; Approved Standard—Seventh Edition) (M07-A7) and anaerobic bacteria (Methods for Antimicrobial Susceptibility Testing of Anaerobic Bacteria; Approved Standard—Seventh Edition) (M11-A7).
Compare the minimal inhibitory concentration (MIC) of a tolC Escherichia coli strain bearing a pUC derived plasmid with and without an leuS gene insert.
If the MIC of the strain bearing the extra copies of leuS is greater than 2-fold more than the control strain then pour LB agar plates with four times the concentration of the MIC of the compound.
Plate 1×10^10 E. coli on ten plates containing 4×MIC of the compound. […]

[1] = Solubility (water and formulation solvents); format: physicochemical; details: water
Nail plate penetration = format: in vitro ADME

Row | solubility [1] | penetration of the nail plate (Nail plate penetration) | Compound | other results
1 | > 100 µg/mL |  | OB1OCc2cc(Cl)ccc21 [compound 2] | 
2 |  | penetrates the nail plate poorly | Cc1cc(C2CCCCC2)n(O)c(=O)c1 [ciclopirox, reference compound] | 
3 | > 100 µg/mL |  | OB1OCc2cc(F)ccc21 [compound 1] | 

The next lines start with the compound.

Row | Compound | solubility [1] | penetration of the nail plate (Nail plate penetration) | other results
4 | NCC1OB(O)c2ccccc21 (centres unmarked) [A1, 3-Aminomethyl-3H-benzo[c][1,2]oxaborol-1-ol) hydrochloride] |  |  | fold increase in resistance of E. coli mutants over wildtype (E. coli): 32-256 fold
5 | Fc1ccc2c(c1)COB2c1ccccc1 [Compound 3] |  | penetrates the nail plate poorly | 

Source: patent US10533021B2, “Boron-containing small molecules” (Anacor Pharmaceuticals, Inc., priority 2007, dated 2020)
